Laboratory results taken from ChEMBL document CHEMBL1201861, “Genomics of Drug Sensitity in Cancer screening data, Wellcome Trust Sanger Institute”.

Key:
Assay in all cases: cells
[1] = tested on: CAPAN-1; type: functional, cell-based, Homo sapiens; settings: Homo sapiens, CAPAN-1;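 also: growth suppression of CAPAN-1 cells, read out by a cell viability assay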
Description: SANGER: Inhibition of human CAPAN-1 cell growth in a cell viability assay.

[2] = tested on: EW-1; type: functional, cell-based, Homo sapiens; settings: Homo sapiens, EW-1;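 also: growth inhibition of the human EW-1 cell line, read out by a cell viability assay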
Description: SANGER: Inhibition of human EW-1 cell growth in a cell viability assay.

[3] = tested on: SF-539; type: functional, cell-based, Homo sapiens; settings: Homo sapiens, SF-539;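 also: Read-out is a cell viability assay, with IC50 reflecting inhibition of cell growth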
Description: SANGER: Inhibition of human SF539 cell growth in a cell viability assay.

[4] = tested on: DMS-79; type: functional, cell-based; settings: Homo sapiens;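 also: growth inhibition measured with a cell viability assay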
Description: SANGER: Inhibition of human DMS-79 cell growth in a cell viability assay.

[5] = tested on: AU565; type: functional, cell-based, Homo sapiens; settings: Homo sapiens, AU565;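 also: cell viability assay measuring growth inhibition of human AU565 cells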
Description: SANGER: Inhibition of human AU565 cell growth in a cell viability assay.

[6] = tested on: ES1; type: functional, cell-based, Homo sapiens; settings: Homo sapiens, ES1;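 also: growth inhibition of ES1 cells, read out with a cell viability assay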
Description: SANGER: Inhibition of human ES1 cell growth in a cell viability assay.

[7] = tested on: SK-UT-1; type: functional, cell-based, Homo sapiens; settings: Homo sapiens, SK-UT-1;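 also: growth inhibition of SK-UT-1 cells, measured by a cell viability assay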
Description: SANGER: Inhibition of human SK-UT-1 cell growth in a cell viability assay.

[8] = tested on: CAMA-1; type: functional, cell-based, Homo sapiens; settings: Homo sapiens, CAMA-1;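 also: growth inhibition of CAMA-1 cells, read out with a cell viability assay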
Description: SANGER: Inhibition of human CAMA-1 cell growth in a cell viability assay.

[9] = tested on: SK-N-FI; type: functional, cell-based, Homo sapiens; settings: Homo sapiens, SK-N-FI;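 also: cell viability assay measuring growth inhibition of human SK-N-FI cells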
Description: SANGER: Inhibition of human SK-N-FI cell growth in a cell viability assay.

[10] = tested on: LK-2; type: functional, cell-based, Homo sapiens; settings: Homo sapiens, LK-2;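 also: growth inhibition of LK-2 cells, read out with a viability assay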
Description: SANGER: Inhibition of human LK-2 cell growth in a cell viability assay.

[11] = tested on: RPMI-2650; type: functional, cell-based, Homo sapiens; settings: Homo sapiens, RPMI-2650
Description: SANGER: Inhibition of human RPMI-2650 cell growth in a cell viability assay.

[12] = tested on: HCC2218; type: functional, cell-based; settings: Homo sapiens;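 also: cell viability assay read-out, with IC50 given as the concentration that inhibits growth of the cell line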
Description: SANGER: Inhibition of human HCC2218 cell growth in a cell viability assay.

[13] = tested on: MKN-28; type: functional, cell-based, Homo sapiens; settings: Homo sapiens, MKN-28;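 also: cell viability assay read-out, IC50 reflects suppression of growth of human MKN-28 cells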
Description: SANGER: Inhibition of human MKN28 cell growth in a cell viability assay.

[14] = tested on: NCI-H69; type: functional, cell-based; settings: Homo sapiens;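 also: growth inhibition of the cell line, read out with a cell viability assay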
Description: SANGER: Inhibition of human NCI-H69 cell growth in a cell viability assay.

[15] = tested on: ABC-1; type: functional, cell-based, Homo sapiens; settings: Homo sapiens, ABC-1;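 also: growth inhibition of human ABC-1 cells, read out by a cell viability assay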
Description: SANGER: Inhibition of human ABC-1 cell growth in a cell viability assay.

[16] = tested on: NB14; type: functional, cell-based; settings: Homo sapiens;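 also: growth inhibition of NB14 cells measured with a cell viability assay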
Description: SANGER: Inhibition of human NB14 cell growth in a cell viability assay.

[17] = tested on: HN; type: functional, cell-based, Homo sapiens; settings: Homo sapiens, HN
Description: SANGER: Inhibition of human HN cell growth in a cell viability assay.

[18] = tested on: HuCCT-1; type: functional, cell-based, Homo sapiens, HuCCT1; settings: Homo sapiens, HuCCT-1;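 also: growth inhibition of HuCCT-1 cells, read out by a cell viability assay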
Description: SANGER: Inhibition of human HuCCT1 cell growth in a cell viability assay.

[19] = tested on: EW-24; type: functional, cell-based; settings: Homo sapiens;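 also: human EW-24 cancer cell line, growth inhibition read out via a cell viability assay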
Description: SANGER: Inhibition of human EW-24 cell growth in a cell viability assay.

[20] = tested on: Becker; type: functional, cell-based, Homo sapiens; settings: Homo sapiens, Becker;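 also: growth inhibition of Becker cells, read out with a cell viability assay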
Description: SANGER: Inhibition of human Becker cell growth in a cell viability assay.

[21] = tested on: M14; type: functional, cell-based, Homo sapiens; settings: Homo sapiens, M14;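 also: growth inhibition of M14 cells, read out with a cell viability assay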
Description: SANGER: Inhibition of human M14 cell growth in a cell viability assay.

[22] = tested on: A101D; type: functional, cell-based, Homo sapiens; settings: Homo sapiens, A101D;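 also: growth inhibition of the cell line, measured with a viability assay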
Description: SANGER: Inhibition of human A101D cell growth in a cell viability assay.

[23] = tested on: BT-474; type: functional, cell-based, Homo sapiens; settings: Homo sapiens, BT-474
Description: SANGER: Inhibition of human BT-474 cell growth in a cell viability assay.

[24] = tested on: HCE-4; type: functional, cell-based, Homo sapiens; settings: Homo sapiens, HCE-4;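 also: cell viability assay measuring inhibition of growth in the human HCE-4 cell line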
Description: SANGER: Inhibition of human HCE-4 cell growth in a cell viability assay.

[25] = tested on: UACC-893; type: functional, cell-based, Homo sapiens; settings: Homo sapiens, UACC-893
Description: SANGER: Inhibition of human UACC-893 cell growth in a cell viability assay.

[26] = tested on: CAS-1; type: functional, cell-based, Homo sapiens; settings: Homo sapiens, CAS-1;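 also: growth inhibition of CAS-1 cells, measured with a cell viability assay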
Description: SANGER: Inhibition of human CAS-1 cell growth in a cell viability assay.

[27] = tested on: MSTO-211H; type: functional, cell-based, Homo sapiens; settings: Homo sapiens, MSTO-211H
Description: SANGER: Inhibition of human MSTO-211H cell growth in a cell viability assay.

[28] = tested on: RPMI-7951; type: functional, cell-based, Homo sapiens; settings: Homo sapiens, RPMI-7951
Description: SANGER: Inhibition of human RPMI-7951 cell growth in a cell viability assay.

[29] = tested on: JVM-2; type: functional, cell-based; settings: Homo sapiens;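 also: growth inhibition of JVM-2 cells determined by a cell viability assay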
Description: SANGER: Inhibition of human JVM-2 cell growth in a cell viability assay.

[30] = tested on: D-247MG; type: functional, cell-based, Homo sapiens; settings: Homo sapiens, D-247MG
Description: SANGER: Inhibition of human D-247MG cell growth in a cell viability assay.

[31] = tested on: T84; type: functional, cell-based, Homo sapiens; settings: Homo sapiens, T84;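 also: growth inhibition measured with a cell viability readout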
Description: SANGER: Inhibition of human T84 cell growth in a cell viability assay.

[32] = tested on: MDA-MB-415; type: functional, cell-based; settings: Homo sapiens
[33] = tested on: NY; type: functional, cell-based, Homo sapiens; settings: Homo sapiens, NY
Description: SANGER: Inhibition of human NY cell growth in a cell viability assay.

[34] = tested on: Panc1005; type: functional, cell-based, Homo sapiens; settings: Homo sapiens, Panc1005;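 also: growth inhibition of human PANC-10-05 cells, measured by a cell viability assay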
Description: SANGER: Inhibition of human PANC-10-05 cell growth in a cell viability assay.

[35] = tested on: RO82-W-1; type: functional, cell-based, Homo sapiens; settings: Homo sapiens, RO82-W-1;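 also: growth inhibition of human RO82-W-1 cells, measured with a cell viability assay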
Description: SANGER: Inhibition of human RO82-W-1 cell growth in a cell viability assay.

[36] = tested on: 8305C; type: functional, cell-based, Homo sapiens; settings: Homo sapiens, 8305C
Description: SANGER: Inhibition of human 8305C cell growth in a cell viability assay.

[37] = tested on: CAL-27; type: functional, cell-based, Homo sapiens; settings: Homo sapiens, CAL-27;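 also: Viability-based readout, IC50 reflecting inhibition of CAL-27 cell growth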
Description: SANGER: Inhibition of human CAL-27 cell growth in a cell viability assay.

[38] = tested on: EW-11; type: functional, cell-based, Homo sapiens; settings: Homo sapiens, EW-11;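 also: growth inhibition of human EW-11 cells, measured with a cell viability assay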
Description: SANGER: Inhibition of human EW-11 cell growth in a cell viability assay.

[39] = tested on: SK-N-AS; type: functional, cell-based, Homo sapiens; settings: Homo sapiens, SK-N-AS;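 also: growth inhibition of human SK-N-AS cells, measured with a cell viability assay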
Description: SANGER: Inhibition of human SK-N-AS cell growth in a cell viability assay.

[40] = tested on: NCI-H2347; type: functional, cell-based, Homo sapiens; settings: Homo sapiens, NCI-H2347;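 also: growth inhibition of the cell line, read out with a cell viability assay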
Description: SANGER: Inhibition of human NCI-H2347 cell growth in a cell viability assay.

[41] = tested on: LB771-HNC; type: functional, cell-based, Homo sapiens; settings: Homo sapiens, LB771-HNC;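 also: growth inhibition of LB771-HNC human cells, read out with a cell viability assay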
Description: SANGER: Inhibition of human LB771-HNC cell growth in a cell viability assay.

[42] = tested on: SCC-4; type: functional, cell-based, Homo sapiens; settings: Homo sapiens, SCC-4;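 also: growth inhibition of human SCC-4 cells, read out as cell viability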
Description: SANGER: Inhibition of human SCC-4 cell growth in a cell viability assay.

[43] = tested on: U-266; type: functional, cell-based; settings: Homo sapiens
Description: SANGER: Inhibition of human U-266 cell growth in a cell viability assay.

[44] = tested on: LS-123; type: functional, cell-based, Homo sapiens; settings: Homo sapiens, LS-123
Description: SANGER: Inhibition of human LS-123 cell growth in a cell viability assay.

[45] = tested on: P12-Ichikawa; type: functional, cell-based; settings: Homo sapiens
[46] = tested on: FaDu; type: functional, cell-based, Homo sapiens; settings: Homo sapiens, FaDu;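 also: cell viability readout of growth inhibition in FaDu cells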
Description: SANGER: Inhibition of human FADU cell growth in a cell viability assay.

[47] = tested on: RPMI-8226; type: functional, cell-based; settings: Homo sapiens
Description: SANGER: Inhibition of human RPMI-8226 cell growth in a cell viability assay.

[48] = tested on: SW982; type: functional, cell-based; settings: Homo sapiens;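 also: growth inhibition of SW982 cells, read out with a cell viability assay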
Description: SANGER: Inhibition of human SW982 cell growth in a cell viability assay.

[49] = tested on: NCI-H2342; type: functional, cell-based; settings: Homo sapiens;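 also: growth inhibition of the cancer cell line, determined with a cell viability assay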
Description: SANGER: Inhibition of human NCI-H2342 cell growth in a cell viability assay.

[50] = tested on: NCI-H720; type: functional, cell-based; settings: Homo sapiens;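 also: growth inhibition of human NCI-H720 cells determined by a cell viability assay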
Description: SANGER: Inhibition of human NCI-H720 cell growth in a cell viability assay.

[51] = tested on: AGS; type: functional, cell-based, Homo sapiens; settings: Homo sapiens, AGS;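 also: growth inhibition of AGS cells, determined with a cell viability assay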
Description: SANGER: Inhibition of human AGS cell growth in a cell viability assay.

[52] = tested on: HOP-62; type: functional, cell-based, Homo sapiens; settings: Homo sapiens, HOP-62;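 also: cell growth inhibition determined with a viability assay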
Description: SANGER: Inhibition of human HOP-62 cell growth in a cell viability assay.

[53] = tested on: HCC1187; type: functional, cell-based, Homo sapiens; settings: Homo sapiens, HCC1187;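 also: growth inhibition of HCC1187 cells, read out with a cell viability assay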
Description: SANGER: Inhibition of human HCC1187 cell growth in a cell viability assay.

SMILES: O=C(c1cc(Cc2n[nH]c(=O)c3ccccc23)ccc1F)N1CCN(C(=O)C2CC2)CC1 [OLAPARIB]
- IC50 [1]: > 5 µM
- IC50 [2]: > 5 µM
- IC50 [3]: > 5 µM
- IC50 [4]: > 5 µM
- IC50 [5]: > 5 µM
- IC50 [6]: 1.11 µM
- IC50 [7]: > 5 µM
- IC50 [8]: > 5 µM
- IC50 [9]: > 5 µM
- IC50 [10]: > 5 µM
- IC50 [11]: > 5 µM
- IC50 [12]: 3.73 µM
- IC50 [13]: > 5 µM
- IC50 [14]: > 5 µM
- IC50 [15]: > 5 µM
- IC50 [16]: > 5 µM
- IC50 [17]: > 5 µM
- IC50 [18]: > 5 µM
- IC50 [19]: > 5 µM
- IC50 [20]: > 5 µM
- IC50 [21]: > 5 µM
- IC50 [22]: > 5 µM
- IC50 [23]: > 5 µM
- IC50 [24]: > 5 µM
- IC50 [25]: > 5 µM
- IC50 [26]: > 5 µM
- IC50 [27]: > 5 µM
- IC50 [28]: > 5 µM
- IC50 [29]: > 5 µM
- IC50 [30]: > 5 µM
- IC50 [31]: > 5 µM
- IC50 [32]: > 5 µM
- IC50 [33]: > 5 µM
- IC50 [34]: > 5 µM
- IC50 [35]: > 5 µM
- IC50 [36]: > 5 µM
- IC50 [37]: > 5 µM
- IC50 [38]: > 5 µM
- IC50 [39]: > 5 µM
- IC50 [40]: > 5 µM
- IC50 [41]: > 5 µM
- IC50 [42]: > 5 µM
- IC50 [43]: > 5 µM
- IC50 [44]: > 5 µM
- IC50 [45]: > 5 µM
- IC50 [46]: > 5 µM
- IC50 [47]: > 5 µM
- IC50 [48]: > 5 µM
- IC50 [49]: > 5 µM
- IC50 [50]: 2.21 µM

SMILES: Cn1cc(C2=C(c3ccc(Cl)cc3Cl)C(=O)NC2=O)c2ccccc21 [SB-216763]
- IC50 [1]: > 10 µM
- IC50 [51]: > 10 µM
- IC50 [2]: > 10 µM
- IC50 [3]: > 10 µM
- IC50 [4]: > 10 µM
- IC50 [5]: > 10 µM
- IC50 [6]: > 10 µM
- IC50 [7]: > 10 µM
- IC50 [8]: > 10 µM
- IC50 [9]: > 10 µM
- IC50 [10]: > 10 µM
- IC50 [11]: > 10 µM
- IC50 [13]: > 10 µM
- IC50 [15]: > 10 µM
- IC50 [52]: 0.853 µM
- IC50 [16]: > 10 µM
- IC50 [17]: > 10 µM
- IC50 [18]: > 10 µM
- IC50 [19]: > 10 µM
- IC50 [20]: > 10 µM
- IC50 [21]: > 10 µM
- IC50 [22]: > 10 µM
- IC50 [23]: > 10 µM
- IC50 [24]: > 10 µM
- IC50 [25]: > 10 µM
- IC50 [26]: > 10 µM
- IC50 [27]: > 10 µM
- IC50 [28]: > 10 µM
- IC50 [29]: > 10 µM
- IC50 [30]: > 10 µM
- IC50 [31]: > 10 µM
- IC50 [33]: > 10 µM
- IC50 [34]: > 10 µM
- IC50 [53]: > 10 µM
- IC50 [35]: > 10 µM
- IC50 [36]: > 10 µM
- IC50 [37]: > 10 µM
- IC50 [38]: > 10 µM
- IC50 [39]: > 10 µM
- IC50 [40]: > 10 µM
- IC50 [41]: > 10 µM
- IC50 [42]: > 10 µM
- IC50 [43]: > 10 µM
- IC50 [44]: > 10 µM
- IC50 [45]: > 10 µM
- IC50 [46]: > 10 µM
- IC50 [47]: > 10 µM
- IC50 [48]: > 10 µM
- IC50 [49]: > 10 µM
